Reference: paper PMC6627609, “Targeting Quorum Sensing: High-Throughput Screening to Identify Novel LsrK Inhibitors” (International Journal of Molecular Sciences, 2019)
Structures can show the parent of a compound that is named as a salt.

Molecular target: LsrK (Salmonella typhimurium, UniProt Q8ZKQ6)
Assay: biochemical
Assay type: biochemical, S. typhimurium
Details: not given

LsrK, sequence (Q8ZKQ6 whole entry): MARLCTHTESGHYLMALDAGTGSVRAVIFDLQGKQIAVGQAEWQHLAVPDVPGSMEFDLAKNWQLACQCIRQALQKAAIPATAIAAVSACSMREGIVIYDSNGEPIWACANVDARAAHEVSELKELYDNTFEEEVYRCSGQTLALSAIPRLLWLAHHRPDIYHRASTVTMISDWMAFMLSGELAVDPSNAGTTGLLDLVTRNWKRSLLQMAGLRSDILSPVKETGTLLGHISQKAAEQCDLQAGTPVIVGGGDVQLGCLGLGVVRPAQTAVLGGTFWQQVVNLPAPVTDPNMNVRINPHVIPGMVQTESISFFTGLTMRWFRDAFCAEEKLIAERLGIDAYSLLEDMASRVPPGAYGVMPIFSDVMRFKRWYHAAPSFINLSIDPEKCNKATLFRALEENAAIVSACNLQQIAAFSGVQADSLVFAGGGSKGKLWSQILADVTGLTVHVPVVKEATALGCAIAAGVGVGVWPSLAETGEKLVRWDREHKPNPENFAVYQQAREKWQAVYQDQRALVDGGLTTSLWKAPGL

Structure (SMILES)	inhibition at 50 µM [%]
CC[C@H]1[C@@H]2C[C@H]3[C@@H]4N(C)c5ccccc5[C@]45C[C@@H]([C@H]2[C@H]5O)N3[C@@H]1O [AJMALINE]	0
CC(N)C(=O)OC(C)(C)Cc1ccc(Cl)cc1 (stereo not drawn) [ALAPROCLATE]	1
CCCSc1ccc2nc(NC(=O)OC)[nH]c2c1 [ALBENDAZOLE]	4
CCCCC(CC)CNC(=N)NC(=N)NCCCCCCNC(=N)NC(=N)NCC(CC)CCCC (stereo not drawn) [ALEXIDINE HYDROCHLORIDE]	146
COCCCOc1cc(C[C@@H](C[C@H](N)[C@@H](O)C[C@H](C(=O)NCC(C)(C)C(N)=O)C(C)C)C(C)C)ccc1OC [ALISKIREN HEMIFUMARATE]	0
O=C1NC(=O)C(=O)C(=O)N1 [ALLOXAN]	18
O=C1c2c(O)cccc2C([C@@H]2O[C@H](CO)[C@@H](O)[C@H](O)[C@H]2O)c2cc(CO)cc(O)c21 (stereo partly drawn) [ALOIN]	45
C=CCc1ccccc1OCC(O)CNC(C)C (stereo not drawn) [ALPRENOLOL]	0
C=CCSCC1Nc2cc(Cl)c(S(N)(=O)=O)cc2S(=O)(=O)N1 (stereo not drawn) [ALTHIAZIDE]	2
C=CC[C@]1(O)CC[C@H]2[C@@H]3CCC4=CC(=O)CCC4=C3C=C[C@@]21C [ALTRENOGEST]	0
CN(C)c1nc(N(C)C)nc(N(C)C)n1 [ALTRETAMINE]	19
CCN(CCCc1ccccc1)CCCc1ccccc1 [ALVERINE CITRATE]	1
CC(=O)OCC(=O)[C@@]12OC3(CCCC3)O[C@@H]1C[C@H]1[C@@H]3CCC4=CC(=O)C=C[C@]4(C)[C@@]3(F)[C@@H](O)C[C@@]12C [AMCINONIDE]	1
NCCCNCCSP(=O)(O)O [AMIFOSTINE]	3
N=C(N)NC(=O)c1nc(Cl)c(N)nc1N [AMILORIDE HYDROCHLORIDE]	1
NC1(C(=O)O)CC1 [AMINOCYCLOPROPANECARBOXYLIC ACID]	1
Nc1ccc(C(=O)NCC(=O)O)cc1 [AMINOHIPPURIC ACID]	1
Nc1ccc(C(=O)O)c(O)c1 [AMINOSALICYLATE SODIUM]	1
CN(C)CCCO[C@@H]1[C@H]2OC(C)(C)O[C@H]2O[C@@H]1[C@H](O)CO [AMIPRILOSE]	2
Cc1ccc(/N=C/N(C)/C=N/c2ccc(C)cc2C)c(C)c1 [AMITRAZ]	1
C[C@@H]1[C@H](O)[C@@H](C)/C=C/C=C/C=C/C=C/C=C/C=C/C=C/[C@H](O[C@@H]2O[C@H](C)[C@@H](O)[C@H](N)[C@@H]2O)C[C@@H]2O[C@](O)(C[C@@H](O)C[C@@H](O)[C@H](O)CC[C@@H](O)C[C@@H](O)CC(=O)O[C@H]1C)C[C@H](O)[C@H]2C(=O)O [AMPHOTERICIN B]	61
CC1(C)S[C@@H]2[C@H](NC(=O)[C@H](N)c3ccccc3)C(=O)N2[C@H]1C(=O)O [AMPICILLIN SODIUM]	1
COc1cc(NS(C)(=O)=O)ccc1Nc1c2ccccc2nc2ccccc12 [AMSACRINE]	1

Structure (SMILES)	inhibition at 50 µM [%]
CN1CCCCC1c1ccc(-c2cccnc2)nc1 (stereo not drawn) [ANABASAMINE HYDROCHLORIDE]	2
c1cncc([C@@H]2CCCCN2)c1 [ANABASINE HYDROCHLORIDE]	2
N=c1ccn2c(n1)O[C@H]1[C@H](O)[C@@H](CO)O[C@H]12 [ANCITABINE HYDROCHLORIDE]	2
C[C@]12CC[C@@H](O)C[C@@H]1CC[C@@H]1[C@@H]2CC[C@]2(C)C(=O)CC[C@@H]12 [ANDROSTERONE]	1
COc1ccc([C@@H](C)C(=O)c2ccc(O)cc2O)cc1 [ANGOLENSIN (R)]	1
COc1ccc2c(=O)c(CC(=O)O)coc2c1 [ANHYD[…]]	3
c1ccc(CN(CC2=NCCN2)c2ccccc2)cc1 [ANTAZOLINE PHOSPHATE]	1
O=C1c2c(O)cccc2Cc2cccc(O)c21 [ANTHRALIN]	8
O=C1c2ccccc2C(=O)c2ccccc21 [ANTHRAQUINONE]	0
COc1cc(O)cc(OC)c1OC [ANTIAROL]	21
O=c1cc(-c2ccc(O)cc2)oc2cc(O[C@@H]3O[C@H](CO)[C@@H](O)[C@H](O)[C@H]3O[C@@H]3OC[C@](O)(CO)[C@H]3O)cc(O)c12 [APIIN]	1
OC[C@H]1O[C@@H](Oc2ccc(O)cc2)[C@H](O)[C@@H](O)[C@@H]1O [ARBUTIN]	2
C[C@H]1[C@@H](O)O[C@@H]2O[C@@]3(C)CC[C@H]4[C@H](C)CC[C@@H]1[C@@]24OO3 [ARTENIMOL]	0
CCCCCCCCCCCCCCCC(=O)OC[C@H](O)[C@H]1OC(=O)C(O)=C1O [ASCORBYL PALMITATE]	28
C[C@H]1[C@H](C)CC[C@]2(C(=O)O)CC[C@]3(C)C(=CC[C@@H]4[C@@]5(C)C[C@@H](O)[C@H](O)[C@@](C)(CO)[C@@H]5CC[C@]43C)[C@H]12 [ASIATIC ACID]	2
CC(=O)Oc1ccccc1C(=O)O [ASPIRIN]	0
CC1=C(/C=C/C(C)=C/C=C/C(C)=C/C=C/C=C(C)/C=C/C=C(C)/C=C/C2=C(C)C(=O)[C@@H](O)CC2(C)C)C(C)(C)C[C@H](O)C1=O [ASTAXANTHIN]	1
O=C1C(O)=C([C@H]2CC[C@H](c3ccc(Cl)cc3)CC2)C(=O)c2ccccc21 [ATOVAQUONE]	1
COC(=O)c1c(C)cc(OC(=O)c2c(C)cc(O)c(C=O)c2O)c(C)c1O [ATRANORIN]	0
CN1[C@@H]2CC[C@H]1C[C@@H](OC(=O)C(CO)c1ccccc1)C2 (stereo partly drawn) [ATROPINE SULFATE]	3
C#CCCCCCCCCCCCC(O)CC(O)COC(C)=O (stereo not drawn) [AVOCADYNE ACETATE]	1
Nc1ncn([C@@H]2O[C@H](CO)[C@@H](O)[C@H]2O)c(=O)n1 [AZACITIDINE]	9
O=C(CCCN1CCN(c2ccccn2)CC1)c1ccc(F)cc1 [AZAPERONE]	25

Structure (SMILES)	inhibition at 50 µM [%]
[N-]=[N+]=CC(=O)OC[C@H](N)C(=O)O [AZASERINE]	3
O=C(O)CCCCCCCC(=O)O [AZELAIC ACID]	3
CN1CCCC(n2nc(Cc3ccc(Cl)cc3)c3ccccc3c2=O)CC1 (stereo not drawn) [AZELASTINE HYDROCHLORIDE]	1
CC1(C)S[C@@H]2[C@H](NC(=O)[C@H](NC(=O)N3CCNC3=O)c3ccccc3)C(=O)N2[C@H]1C(=O)O [AZLOCILLIN SODIUM]	0
c1ccc(/N=N/c2ccccc2)cc1 [AZOBENZENE]	1
C[C@H]1[C@H](NC(=O)/C(=N\OC(C)(C)C(=O)O)c2csc(N)n2)C(=O)N1S(=O)(=O)O [AZTREONAM]	1
CCOC(=O)OC(C)OC(=O)[C@@H]1N2C(=O)[C@@H](NC(=O)[C@H](N)c3ccccc3)[C@H]2SC1(C)C (stereo partly drawn) [BACAMPICILLIN HYDROCHLORIDE]	5
CC(=O)O[C@H]1C(=O)[C@@]2(C)[C@H]([C@H](OC(=O)c3ccccc3)[C@]3(O)C[C@H](O)C(C)=C1C3(C)C)[C@]1(OC(C)=O)CO[C@@H]1C[C@@H]2O [BACCATIN III]	9
O=c1cc(-c2ccccc2)oc2cc(O)c(O)c(O)c12 [BAICALEIN]	2
CCC1(CC)C(=O)NC(=O)NC1=O [BARBITAL]	1
CCOC(=O)[C@H](CCc1ccccc1)N[C@H]1CCc2ccccc2N(CC(=O)O)C1=O [BENAZEPRIL HYDROCHLORIDE]	0
NS(=O)(=O)c1cc2c(cc1C(F)(F)F)NC(Cc1ccccc1)NS2(=O)=O (stereo not drawn) [BENDROFLUMETHIAZIDE]	0
CC(Cc1cccc(C(F)(F)F)c1)NCCOC(=O)c1ccccc1 (stereo not drawn) [BENFLUOREX HYDROCHLORIDE]	4
C/C(=C(\CCOP(=O)(O)O)SC(=O)c1ccccc1)N(C=O)Cc1cnc(C)nc1N [BENFOTIAMINE]	0
NC(CO)C(=O)NNCc1ccc(O)c(O)c1O (stereo not drawn) [BENSERAZIDE HYDROCHLORIDE]	97
CCc1oc2ccccc2c1C(=O)c1cc(Br)c(O)c(Br)c1 [BENZBROMARONE]	106
O=C(O)c1ccccc1 [BENZOIC ACID]	3
O=C(Oc1cccc2cccnc12)c1ccccc1 [BENZOXIQUINE]	0
O=C(OOC(=O)c1ccccc1)c1ccccc1 [BENZOYL PEROXIDE]	11
S=C=NCc1ccccc1 [BENZYL ISOTHIOCYANATE]	2
CC(C)COCC(CN(Cc1ccccc1)c1ccccc1)N1CCCC1 (stereo not drawn) [BEPRIDIL HYDROCHLORIDE]	18
COc1ccc2cc3[n+](cc2c1OC)CCc1cc2c(cc1-3)OCO2 [BERBERINE CHLORIDE]	1
COc1c(O)cc2c(c1O)[C@@H]1O[C@H](CO)[C@@H](O)[C@H](O)[C@H]1OC2=O [BERGENIN]	0

Same assay, conditions: 50 µM

Structure (SMILES)	Inhibition (%)
O=C(O)CCCCCCCC(O)C(O)CCCCCCO (stereo not drawn) [ALEURETIC ACID]	0
COc1cc2nc(N(C)CCCNC(=O)C3CCCO3)nc(N)c2cc1OC (stereo not drawn) [ALFLUZOSIN]	1
C=CCc1cc(OC)c2c(c1OC)OCO2 [APIOLE]	1
COc1cc2c(cc1OC)-c1c(oc3cc(O)cc(O)c3c1=O)CO2 [APOTOXICAROL]	1
OCC(O)C(O)C(O)CO (stereo not drawn) [ARABITOL(D)]	0
Cl.N=C(N)NCCC[C@H](N)C(=O)O [ARGININE HYDROCHLORIDE]	1
OC[C@H]1O[C@H]([S-])[C@H](O)[C@@H](O)[C@@H]1O.[Au+] [AUROTHIOGLUCOSE]	104
C=CCCCCCCCCCCCc1ccco1 [AVOCADENOFURAN]	2
O=C(CNC(=O)c1ccc(Cl)cc1)NO [BENURESTAT]	3
C[N+](C)(CCOc1ccccc1)Cc1ccccc1.O=C([O-])c1cc2ccccc2cc1O [BEPHENIUM HYDROXYNAPTHOATE]	1
O=C1CCO1 [BETA-PROPIOLACTONE]	0
CCC(=O)OCC(=O)[C@@]1(OC(=O)CC)[C@@H](C)C[C@H]2[C@@H]3CCC4=CC(=O)C=C[C@]4(C)[C@@]3(F)[C@@H](O)C[C@@]21C [BETAMETHASONE 17.21-DIPROPIONATE]	0
